Measured values: patent US20170013861A1, “BIOLOGICAL FORMULATION FOR COMPLEMENTING AN ANIMAL FEED, PROCESS FOR OBTAINING A BIOLOGICAL FORMULATION FOR AN ANIMAL FEED AND AN ANIMAL FEED” (PHB INDUSRIAL S.A., priority 2014, published 2017)

Assays:
broiler chickens [1] = assay: Feed complementation for broiler chickens, initial growing cycle, 1 to 21 days (Example 5); type: in vivo; details: 0 to 21 days
Source text: For this study it was used 336 chickens, males of Cobb lineage 500, received with one day of life. The chickens were housed in 28 cages, with 12 chickens being in each experimental unit. These chickens were submitted to 7 different treatments, each with 4 repetitions, distributed randomly in 7 blocks of 4 experimental units, with two daily observations being made, in order to evaluate the general conditions of the batch, such as temperature, illumination, water, feed and conditions of the bed of each one of the boxes.
The treatments of each batch of chickens were based on a pattern feed. Using this basal feed, the different treatments were developed as follows:
The quantity of formulation applied in the feeds presented as reference the used quantity of butyrates/feed ton, that is, within the interval from 200 g/feed ton to 1.000 g/feed ton.
The results obtained with these different treatments are related in the Table—Average weight, average weight gain, average feed consumption, alimentary conversion and mortality during the experimental period from 0 to 21 days: […]

broiler chickens [2] = assay: Feed complementation for broiler chickens, whole productive cycle, 1 to 42 days (Example 6); type: in vivo; details: for Alimentary conversion / Average weight gain (GPM)/chicken / Feed consumption / GPD / % death: 0 to 42 days; for % death: broiler chickens; for Average weight (PM)/chicken, PM2: final weight, 42 days
Source text: For this study there were used 2.352 chickens, males of the Cobb lineage 500, received with one day of life. The chickens were housed in 42 boxes, with 56 chickens being in each experimental unit. These chickens were submitted to different treatments, distributed randomly in 06 blocks of 07 experimental units, with two daily observations being made, in order to evaluate the general conditions of the batch, such as temperature, illumination, water, feed and conditions of the bed of each one of the boxes.
The treatments of each chicken batch were based on a pattern feed, with the following composition:
From this basal feed, the different treatments were developed as follows:
The results obtained with these different treatments are shown in the Table—Average weight, average weight gain, average feed consumption, alimentary conversion and mortality during the experimental period from 0 to 42 days: […]

| Molecule | Alimentary conversion (broiler chickens [1]) | Accumulated mortality % (broiler chickens [1]; broiler chickens) | Alimentary conversion (broiler chickens [2]) | Average weight gain (GPM)/chicken (broiler chickens [2]) | Feed consumption (broiler chickens [2]) | GPD (broiler chickens [2]) | % death (broiler chickens [2]) | Average weight (PM)/chicken, PM2 (broiler chickens [2]) |
| --- | --- | --- | --- | --- | --- | --- | --- | --- |
| CCCC(=O)[O-].[Na+] [Treatment T2, sodium butyrate] | 1.371 | 10.41% | 1.789 | 2.709 abc kg | 5.058 kg | 65.5 a g/day | 6.47% | 2.753 abc kg |
| calcium butyrate [T3 - Ca, butyrate 45%] |  |  | 1.874 | 2.655 bc kg | 5.116 kg | 64.3 b g/day | 4.91% | 2.699 c kg |
